In PubChem BioAssay (NCI):
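Results reflect a 48-hour exposure of cells in 96-well plates to compound at five concentrations. GI50 marks 50% less growth. At the TGI there is no net growth.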

Columns and labels:
Experiment in all cases: NCI tumour cell line growth inhibition, 48 h
A498 renal = system: A498 renal
HCT-15 colon = system: HCT-15 colon
HL-60(TB) leukemia = system: HL-60(TB) leukemia
K-562 leukemia = system: K-562 leukemia
MOLT-4 leukemia = system: MOLT-4 leukemia
NCI-H522 lung = system: NCI-H522 lung
SK-MEL-2 melanoma = system: SK-MEL-2 melanoma

| Compound | TGI (A498 renal) [µM] | TGI (HCT-15 colon) [µM] | TGI (HL-60(TB) leukemia) [µM] | TGI (K-562 leukemia) [µM] | TGI (MOLT-4 leukemia) [µM] | TGI (NCI-H522 lung) [µM] | TGI (SK-MEL-2 melanoma) [µM] | GI50 (A498 renal) [µM] | GI50 (HCT-15 colon) [µM] | GI50 (HL-60(TB) leukemia) [µM] | GI50 (K-562 leukemia) [µM] | GI50 (MOLT-4 leukemia) [µM] | GI50 (NCI-H522 lung) [µM] | GI50 (SK-MEL-2 melanoma) [µM] |
| --- | --- | --- | --- | --- | --- | --- | --- | --- | --- | --- | --- | --- | --- | --- |
| COc1ccc(OC(C)C(=O)O)c2c(=O)ccccc12 (stereo unspecified) | > 100 | > 100 | > 100 | > 100 | > 100 | > 100 | > 100 | – | – | – | – | – | – | – |
| O/N=C/c1ccc(O)c(O)c1 | > 100 | > 100 | 58.8 | > 100 | > 100 | > 100 | > 100 | – | – | – | – | – | – | – |
| CC(=O)[CH-]C(=O)c1ccccc1.CC(=O)[CH-]C(=O)c1ccccc1.[O-]c1ccc2c(c1)OCO2.[O-]c1ccc2c(c1)OCO2.[Ti+4] | 64.8 | > 100 | 48 | > 100 | 51.5 | 42.1 | 57.7 | 32.7 | 34.4 | 10.7 | 31.5 | 15.4 | 16.5 | 22.5 |
| CCC(CO)Nc1nc2c(c(=O)n(C)c(=O)n2C)n1CCO (stereo unspecified) | – | > 100 | – | > 100 | > 100 | – | > 100 | – | – | – | – | – | – | – |
| O=C1Nc2cc(F)ccc2C1=O | > 100 | > 100 | > 100 | > 100 | > 100 | > 100 | > 100 | – | – | – | – | – | – | – |
| CC(=O)Oc1ccc2c(c1)C(=O)c1nc(C)c(C)nc1C2=O | > 91.7 | > 100 | 56.4 | > 100 | > 100 | 89.6 | > 86.3 | – | – | – | – | – | – | – |
| CCCCN(CCCC)CC(C(C)=O)C(c1ccccc1)c1c(O)c2ccccc2oc1=O (stereo unspecified) | – | > 100 | > 100 | > 100 | > 100 | > 100 | > 100 | – | – | – | – | – | – | – |
| C1=CCCC=CCC1.C[PH+](C)C.C[PH+](C)C.C[PH+](C)C.[Cl-].[Ir] | – | > 100 | 75.3 | > 100 | > 100 | 60.1 | 60.4 | – | > 100 | 28.7 | 26.6 | 30.2 | 26.4 | 23.4 |
| O=c1c2cc3ccccc3n2c(=O)c2cc3ccccc3n12 | > 100 | > 100 | > 100 | > 100 | > 100 | > 100 | > 100 | – | – | – | – | – | – | – |
